Values quoted from earlier work, collected in US6610702B2, “Ammonium salts of inositol hexaphosphate, and uses thereof” (GMP Oxycell, Inc., priority 2000, dated 2003).
Read-outs that look alike come from different tables or passages of the source.

Tests used:
[1] = biological target: stripped hemoglobin (Homo sapiens, UniProt P68871); conditions: pH 7.4, cited from earlier work
[2] = tested on: human RBCs; conditions: IHP encapsulated in human RBCs by continuous-flow electroporation; cited from earlier work
[3] = biological target: allosteric site on hemoglobin (Homo sapiens, UniProt P68871); conditions: displaces hemoglobin-bound 2,3-DPG; cited from earlier work
[4] = buffer 100 mM sodium phosphate, pH 7.0; cited from earlier work

Chain of stripped hemoglobin (P68871 2-147 limits assumed): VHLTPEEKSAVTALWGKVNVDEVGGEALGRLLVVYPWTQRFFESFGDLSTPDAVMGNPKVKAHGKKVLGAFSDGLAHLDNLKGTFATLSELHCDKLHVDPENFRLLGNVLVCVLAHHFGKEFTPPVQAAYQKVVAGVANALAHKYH
Chain of stripped hemoglobin (P69905 2-142 partner limits assumed): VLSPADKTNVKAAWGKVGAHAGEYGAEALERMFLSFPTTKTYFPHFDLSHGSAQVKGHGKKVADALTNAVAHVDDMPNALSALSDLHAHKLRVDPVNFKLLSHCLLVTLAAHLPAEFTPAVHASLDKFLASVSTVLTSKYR
Chain of allosteric site on hemoglobin (P68871 2-147 limits assumed): as the sequence (P68871 2-147 limits assumed) above
Chain of allosteric site on hemoglobin (P69905 2-142 partner limits assumed): as the sequence (P69905 2-142 partner limits assumed) above

SMILES	half-saturation pressure P(O2) (½) of stripped hemoglobin ([1]; 25 C., stripped hemoglobin alone 4.3)	half-saturation pressure P(O2) (½) of stripped hemoglobin ([1]; 37 C., stripped hemoglobin alone 9.3)	P50 of modified RBCs [2]	affinity for the allosteric site relative to 2,3-DPG [3]	Octanol/buffer partition coefficient [4]
O=P(O)(O)O[C@H]1[C@H](OP(=O)(O)O)[C@@H](OP(=O)(O)O)[C@H](OP(=O)(O)O)[C@@H](OP(=O)(O)O)[C@H]1OP(=O)(O)O [IHP, inositol hexaphosphate]	48.4 mm Hg	96.4 mm Hg	approximately 50 torr	one-thousand times greater affinity	–
Cc1cn([C@H]2CC(O)[C@@H](CO)O2)c(=O)[nH]c1=O (some centres unmarked)	–	–	–	–	0.064
